Results published in patent US20030087799A1, “Modulation” (priority 2001, published 2003).
Where two headings read alike, the source gives them in different places.

Assays:
GABAA receptor = GABAA receptor mediated chloride currents evoked on cultured neurones; assay type: cell-based
[1] = tested on: K-ATP channels in DA neurones; assay: K-ATP channel mediated response of DA neurones to mitochondrial inhibitors; assay type: cell-based, mouse; settings: read-out: EC50 of K-ATP channel sensitivity
[2] = tested on: Ih channels in DA SN neurones; assay: Pacemaker frequency of DA SN neurones under selective Ih inhibition; assay type: cell-based; settings: 30 μM ZD7288
[3] = tested on: SK mediated AHP currents (I-AHP) in dopaminergic neurons; assay: cells; assay type: cell-based, mouse; settings: for IC50: read-out: IC50 of I-AHP inhibition (Hill function)
globus pallidus neurones = assay: Electrical activity of globus pallidus neurones in brain slices; assay type: cell-based, mouse
[4] = tested on: T-type calcium channels (low voltage-activated calcium currents); assay type: cell-based, mouse; settings: read-out: IC50 of I-LVA inhibition (Hill function)
[5] = tested on: dopaminergic midbrain neurons; assay type: cell-based, mouse
dopaminergic neurons [6] = assay type: cell-based, mouse
dopaminergic neurons [7] = tested on: dopaminergic neurons

`[H]/N=C(/N)NCC(=O)O` [GAA, guanidinoacetate] gave an EC50 (GABAA receptor) of 164 µM.

`C[n+]1ccc(-c2ccccc2)cc1` [MPP^+] was tested, and the EC50 ([1]; MPP+) was roughly 2 µM.

For `CCN(c1ccccc1)c1cc(=NC)n(C)c(C)n1.Cl` [ZD7288], the “decrease of pacemaker frequency” value [2] was “about 50%”.

With `[Co+2]` [cobalt] the “I-AHP residual current (cobalt block)” value ([3]; 1 mM cobalt, n=29) was 29±4%.

For `CN(CC(=O)O)C(=N)N` [creatine], the “effect on neuronal activity” value (globus pallidus neurones; millimolar concentrations) was “no effect”.

In the case of `COCC(=O)O[C@]1(CCN(C)CCCc2nc3ccccc3[nH]2)CCc2cc(F)ccc2[C@@H]1C(C)C` [mibefradil, Mibefradil], the IC50 ([4]; depolarizations to −50 mV from holding potential −100 mV) is reported as 4.6 µM, the IC50 ([3]; Mus musculus, Neuron, mean dose-response, recording potential −60 mV) is reported as 5.9 µM and the “inhibition of cobalt-sensitive I-AHP” value ([3]; mibefradil, concentration not given, normalized to mean value of cobalt block, n=6) is reported as 94±10%.

With `[Ni+2]` [nickel] the IC50 [4] was 33.9 µM, the “bursting value (action potentials in bursts / total)” value [5] was 12±6% and the “coefficient of variation (CV) of interspike intervals, representative recording” value (dopaminergic neurons [6]) was 38%. For the same molecule, the “mean CV of interspike intervals” value (dopaminergic neurons [6]) was 27±5%, the “inhibition of cobalt-sensitive I-AHP” value [3] was 85±9% and the IC50 [3] was 33.8 µM. The “fold reduction of AHPs with successive action potentials (cumulative inactivation)” value (dopaminergic neurons [7]) was 1.1±0.1.

`C=C(C)[C@H]1Cc2c(ccc3c2O[C@@H]2COc4cc(OC)c(OC)cc4[C@@H]2C3=O)O1` [rotenone] showed an EC50 ([1]; rotenone) of roughly 0.015 µM.

In the case of picrotoxin, the “effect on GAA-induced effects” value (globus pallidus neurones; GABAA receptor antagonists) is reported as “blocked”.
